# How the values were obtained:
# [1] = system: AMPK; test: AMPK activation assay (western blot phospho-AMPK Thr172) in Hep G2; format: cell-based, human; details: Hep G2 cells, 30 min treatment
# Procedure: (§1) Effects of compounds on AMPK activation were analyzed in mouse muscle cell C2C12, mouse fibroblast 3T3-L1 and human hepatocyte Hep G2. Those cell lines were cultured in high-glucose Dulbecco's modified Eagle's medium (DMEM) containing 10% fetal bovine serum (FBS), 4 mM L-glutamine, 2 mM sodium pyruvate and 1% penicillin/streptomycin (Invitrogen GibcoBRL, Carlsbad, Calif., USA) at 37° C. under 5% CO2. Cells were plated at 3×10^5 per well (6-well plate). 24 h after plating, cells were treated with indicated compounds for 30 min followed by cell lysis and western blot analysis. Equal amount of protein were separated by SDS-PAGE and then electroblotted on to PVDF membranes. Membranes were blocked with 3% BSA in PBS for 60 min and incubated with anti-phospho-AMPK (Thr172) antibody (1:2,000, Cell signaling), anti-AMPK antibody (1:2,000, Cell signaling), anti-Glut4 antibody (1:1,000, Millipore) or anti-actin antibody (1:5,000; Chemicon International) at 4° C. overnight followed by the corresponding secondary antibody for 1 h at room temperature (RT). Immunoreactive bands were detected by enhanced chemiluminescence (ECL; Pierce, Rockford, Ill., USA) and recorded using Kodakfilm (Rochester, N.Y., USA). The detected signals were scanned and then quantified by using TotalLab Quant software (TotalLab).
# [2] = system: AMPK; test: AMPK activation assay (western blot phospho-AMPK Thr172) in 3T3-L1; format: cell-based, mouse; details: 3T3-L1 cells, 30 min treatment
# Procedure: as §1
# [3] = system: AMPK; test: AMPK activation assay (western blot phospho-AMPK Thr172) in C2C12; format: cell-based, mouse; details: C2C12 cells, 30 min treatment
# Procedure: as §1
Structure (SMILES),AMPK activation (% to control) Hep G2 ([1]; 1 microM),AMPK activation (% to control) Hep G2 ([1]; 10 microM),AMPK activation (% to control) Hep G2 ([1]; 100 microM),AMPK activation (% to control) Hep G2 ([1]; 200 microM),AMPK activation (% to control) 3T3-L1 ([2]; 1 microM),AMPK activation (% to control) 3T3-L1 ([2]; 10 microM),AMPK activation (% to control) 3T3-L1 ([2]; 100 microM),AMPK activation (% to control) 3T3-L1 ([2]; 200 microM),AMPK activation (% to control) C2C12 ([3]; 1 microM),AMPK activation (% to control) C2C12 ([3]; 10 microM),AMPK activation (% to control) C2C12 ([3]; 100 microM),AMPK activation (% to control) C2C12 ([3]; 200 microM)
"Nc1nc(NCc2ccccc2)nc2nc[nH]c12 [Example 2-benzylamino-6-aminopurine, 2-benzylamino-6-aminopurine]",105 % to control,116 % to control,235 % to control,364 % to control,119 % to control,147 % to control,217 % to control,308 % to control,110 % to control,128 % to control,259 % to control,312 % to control
"Nc1nc(Br)nc2nc[nH]c12 [Example 2-bromoadenine, 2-bromoadenine]",113 % to control,190 % to control,253 % to control,354 % to control,119 % to control,188 % to control,277 % to control,361 % to control,116 % to control,172 % to control,263 % to control,349 % to control
"O=c1[nH]c(Br)nc2nc[nH]c12 [Example 2-bromohypoxanthine, 2-bromohypoxanthine]",110 % to control,160 % to control,242 % to control,359 % to control,111 % to control,176 % to control,245 % to control,357 % to control,108 % to control,142 % to control,214 % to control,321 % to control
"Oc1nc(Cl)nc2nc[nH]c12 [Example 2-chloro-6-hydroxypurine, 2-chloro-6-hydroxypurine]",110 % to control,163 % to control,249 % to control,375 % to control,108 % to control,145 % to control,243 % to control,356 % to control,109 % to control,156 % to control,277 % to control,331 % to control
"Nc1nc(Cl)nc2nc[nH]c12 [Example 2-chloroadenine, 2-chloroadenine]",116 % to control,139 % to control,220 % to control,314 % to control,118 % to control,143 % to control,271 % to control,311 % to control,110 % to control,155 % to control,284 % to control,326 % to control
"Nc1nc(F)nc2nc[nH]c12 [Example 2-fluoroadenine, 2-fluoroadenine]",117 % to control,180 % to control,259 % to control,315 % to control,114 % to control,165 % to control,291 % to control,323 % to control,102 % to control,112 % to control,213 % to control,303 % to control
"Oc1nc(NCc2ccccc2)c2[nH]cnc2n1 [Example 2-hydroxy-6-benzylaminopurine, 2-hydroxy-6-benzylaminopurine]",109 % to control,137 % to control,261 % to control,338 % to control,115 % to control,126 % to control,230 % to control,309 % to control,108 % to control,135 % to control,244 % to control,356 % to control
"Oc1nc(S)c2[nH]cnc2n1 [Example 2-hydroxy-6-mercaptopurine, 2-hydroxy-6-mercaptopurine]",105 % to control,108 % to control,204 % to control,222 % to control,118 % to control,122 % to control,210 % to control,277 % to control,104 % to control,109 % to control,198 % to control,251 % to control
"CNc1nc(O)nc2nc[nH]c12 [Example 2-hydroxy-6-methylaminopurine, 2-hydroxy-6-methylaminopurine]",115 % to control,148 % to control,266 % to control,354 % to control,113 % to control,162 % to control,271 % to control,382 % to control,118 % to control,151 % to control,255 % to control,361 % to control
"CCCNc1nc(O)nc2nc[nH]c12 [Example 2-hydroxy-6-propylaminopurine, 2-hydroxy-6-propylaminopurine]",110 % to control,133 % to control,270 % to control,339 % to control,109 % to control,129 % to control,233 % to control,361 % to control,114 % to control,122 % to control,201 % to control,324 % to control
"Nc1nc(O)nc2nc[nH]c12 [Example 2-hydroxyadenine, 2-hydroxyadenine]",118 % to control,143 % to control,220 % to control,338 % to control,117 % to control,171 % to control,264 % to control,351 % to control,111 % to control,166 % to control,275 % to control,315 % to control
"Nc1nc(I)nc2nc[nH]c12 [Example 2-iodoadenine, 2-iodoadenine]",115 % to control,151 % to control,227 % to control,341 % to control,116 % to control,179 % to control,237 % to control,358 % to control,114 % to control,143 % to control,214 % to control,311 % to control
